We go through eleven compounds from ChEMBL document CHEMBL1201862, “PubChem BioAssay data set” (2004).

The structures appear in SMILES notation.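 1) Cells in 96-well plates. 2) Compound, 48 h, 5 concentrations. 3) Linear interpolation between surrounding doses. 4) Unreached endpoint = highest concentration. Here, GI50 denotes the concentration required for 50% inhibition of growth.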 Activity calls are given as the source filed them. Cut-off read from the data, not from the text of the source: active = GI50 up to about 1.1 µM and inactive = higher. A value given as a limit tells only on which side of the number the result lay.

Among the test systems are HCT-15; SK-OV-3; RPMI-8226; HCC 2998; SK-MEL-5; UACC-62; NCI-H522; MDA-N; KM12; SR; SNB-19; CAKI-1; DU-145; COLO 205; MOLT-4; U-251; HOP-62; NCI-H460; HOP-92; A549.
What all share (assay): NCI tumour cell line growth inhibition, 48 h

Regarding `OCC(CCc1ccccc1I)C1=CCC2(CC1)OCCO2` (stereo not drawn), the GI50 in the experiment with HCT-15 was 21.9 µM; in the experiment on SK-OV-3 it was 39 µM (inactive); in the experiment on RPMI-8226, 53.6 µM (inactive); in the experiment with HCC 2998, 20.4 µM (inactive); with SK-MEL-5 it was 14.6 µM (inactive); with UACC-62, 16.4 µM (inactive). Besides, the GI50 with NCI-H522 is 15.2 µM (inactive); with MDA-N, 18.2 µM (inactive); with KM12, 16.4 µM (inactive); with SR, 45.6 µM (inactive); in the experiment on SNB-19 it was 18.5 µM (inactive); in the experiment on CAKI-1 it was 24.7 µM (inactive). Besides, the GI50 is 19.5 µM (inactive) in the experiment with DU-145; 20.1 µM (inactive) with COLO 205; 61.2 µM (inactive) in the experiment on MOLT-4; 19.7 µM (inactive) in the experiment on U-251; 18.2 µM (inactive) with HOP-62; 26.5 µM (inactive) in the experiment with NCI-H460. Also, the figures for the GI50 in the experiment with HOP-92 and in the experiment with A549 were 12.4 µM (inactive) and 19.8 µM (inactive), respectively.

In the case of `O=c1[nH]n(Cc2ccccc2Cl)c2ccc([N+](=O)[O-])cc12`, the GI50 is 58.6 µM in the experiment with HCT-15; 45.1 µM (inactive) in the experiment with RPMI-8226; 50.1 µM (inactive) in the experiment with HCC 2998; 12.6 µM (inactive) in the experiment with SK-MEL-5; 43.4 µM (inactive) with UACC-62; 36.1 µM (inactive) in the experiment with NCI-H522. Further, the GI50 is 47 µM (inactive) with MDA-N; 63.5 µM (inactive) in the experiment with KM12; 29.2 µM (inactive) in the experiment on SR; 80 µM (inactive) with SNB-19; > 100 µM (inactive) in the experiment with CAKI-1; > 100 µM (inactive) with DU-145. The GI50 was > 100 µM (inactive) with COLO 205; 35.8 µM (inactive) with MOLT-4; 75.9 µM (inactive) in the experiment on U-251; 75.9 µM (inactive) in the experiment on HOP-62; 35.6 µM (inactive) in the experiment on NCI-H460; 18.5 µM (inactive) in the experiment with HOP-92. In addition, the GI50 in the experiment on A549 is 37.8 µM (inactive).

Turning to `COC(=O)c1ccccc1/C=C1\Cc2c(C)c3c(c(C)c2C1=O)CCC3`, the GI50 in the experiment with HCT-15 was greater than 100 µM; with RPMI-8226, > 100 µM (inactive); in the experiment with HCC 2998, > 100 µM (inactive); with SK-MEL-5, > 100 µM (inactive); with UACC-62, > 100 µM (inactive); in the experiment on NCI-H522, > 100 µM (inactive). The GI50 in the experiment on MDA-N, with KM12, in the experiment on SR, in the experiment on SNB-19, with CAKI-1 and with DU-145 was > 100 µM (inactive) each time. The GI50 in the experiment on COLO 205 is > 100 µM (inactive); with MOLT-4, > 100 µM (inactive); in the experiment on U-251, 37.8 µM (inactive); in the experiment on HOP-62, > 100 µM (inactive); in the experiment on NCI-H460, > 100 µM (inactive); with HOP-92, > 100 µM (inactive). Moreover, the GI50 in the experiment with A549 is > 100 µM (inactive).

As for `CC(C)(C)c1ccc(-n2c3nc(=O)n(-c4ccccc4C(F)(F)F)c(=O)c-3cc3ccccc32)cc1`, the GI50 in the experiment on HCT-15 is 12.3 µM; in the experiment with HCC 2998 it was 14.2 µM (inactive); in the experiment on SK-MEL-5, 15 µM (inactive); with UACC-62 it was 14.9 µM (inactive); in the experiment on NCI-H522, 16.9 µM (inactive); with MDA-N, 22.2 µM (inactive). Further, the GI50 is 16.2 µM (inactive) with KM12; 19.3 µM (inactive) with SR; 31.8 µM (inactive) in the experiment with SNB-19; 25.1 µM (inactive) with CAKI-1; 28.1 µM (inactive) with DU-145; 19.1 µM (inactive) with COLO 205. The GI50 is 17.9 µM (inactive) in the experiment with MOLT-4; 11 µM (inactive) with U-251; 18.3 µM (inactive) in the experiment on HOP-62; 4.25 µM (inactive) in the experiment on NCI-H460; 18.1 µM (inactive) with HOP-92; 29 µM (inactive) with A549.

With `O=C(OCC(OC(=O)c1ccccc1)C1CC(C(O)C2CCCCC2)C(=O)O1)c1ccccc1` (stereo not drawn), the GI50 in the experiment with HCT-15 is 43.2 µM; in the experiment with SK-OV-3, > 100 µM (inactive); with RPMI-8226, 24.2 µM (inactive); in the experiment on HCC 2998, 47.9 µM (inactive); in the experiment on SK-MEL-5 it was 17.3 µM (inactive); in the experiment with UACC-62, > 100 µM (inactive). The GI50 in the experiment on NCI-H522 is 22.2 µM (inactive); in the experiment on MDA-N it was > 100 µM (inactive); in the experiment on KM12 it was 41.8 µM (inactive); with SR it was 20.1 µM (inactive); in the experiment on SNB-19, 59 µM (inactive); in the experiment on CAKI-1, > 100 µM (inactive). Besides, the GI50 with DU-145 is > 100 µM (inactive); in the experiment on COLO 205, 45.9 µM (inactive); in the experiment with MOLT-4, 22 µM (inactive); with U-251, 71.6 µM (inactive); in the experiment with HOP-62, 49.5 µM (inactive); in the experiment with NCI-H460 it was 25.9 µM (inactive). The GI50 in the experiment on HOP-92 was > 100 µM (inactive).

Regarding `CC1=CC(C)(C)[C@H]2O[C@@]3(O)C[C@]4(C)[C@H]5C[C@@](C(C)C)(O[C@H]4c4ccoc4)O[C@H]4[C@]5(C3)O[C@@]1(O)[C@]24O`, the GI50 was greater than 100 µM in the experiment with HCT-15; > 100 µM (inactive) with SK-OV-3; > 100 µM (inactive) with RPMI-8226; > 100 µM (inactive) in the experiment on HCC 2998; 44.2 µM (inactive) in the experiment with SK-MEL-5; > 100 µM (inactive) in the experiment on UACC-62. The GI50 is 5.26 µM (inactive) with NCI-H522; > 100 µM (inactive) in the experiment on MDA-N; > 100 µM (inactive) in the experiment on KM12; > 100 µM (inactive) with SR; 45.4 µM (inactive) in the experiment on SNB-19; > 100 µM (inactive) in the experiment on CAKI-1. Besides, the GI50 with DU-145 was > 100 µM (inactive); in the experiment on COLO 205, > 100 µM (inactive); in the experiment with MOLT-4 it was > 100 µM (inactive); in the experiment on U-251 it was 74 µM (inactive); in the experiment on HOP-62 it was 23.5 µM (inactive); in the experiment with HOP-92, 83.8 µM (inactive). In the experiment with A549, the GI50 is 75.9 µM (inactive).

Regarding `COc1cc(S(=O)(=O)Nc2nc(-c3ccc(/N=C/c4ccccc4O)cc3)cs2)ccc1Cl`, the GI50 in the experiment on HCT-15 was 31.6 µM; with SK-OV-3 it was 44.9 µM (inactive); in the experiment with HCC 2998, 45.5 µM (inactive); in the experiment on SK-MEL-5, 26 µM (inactive); in the experiment with UACC-62, 23.7 µM (inactive); with NCI-H522, 33.7 µM (inactive). Moreover, the GI50 with MDA-N is 30.5 µM (inactive); in the experiment on KM12, 53.8 µM (inactive); with SR, 34.7 µM (inactive); in the experiment with SNB-19, 34.2 µM (inactive); in the experiment on CAKI-1, 60.4 µM (inactive); with DU-145, 69.2 µM (inactive). Moreover, the GI50 with COLO 205 is 25.7 µM (inactive); in the experiment on MOLT-4, 27.5 µM (inactive); in the experiment with U-251, 36.9 µM (inactive); in the experiment with HOP-62, 40.3 µM (inactive); in the experiment with NCI-H460, 35.3 µM (inactive); with HOP-92, 29 µM (inactive). In addition, the GI50 with A549 is 41.3 µM (inactive).

For `Nc1nnc(-c2ccco2)c(-c2ccco2)n1`, the GI50 with HCT-15 was greater than 100 µM; with SK-OV-3, > 100 µM (inactive); with RPMI-8226 it was > 100 µM (inactive); in the experiment with HCC 2998, > 100 µM (inactive); with SK-MEL-5, > 100 µM (inactive); in the experiment with UACC-62, > 100 µM (inactive). The GI50 in the experiment on NCI-H522, in the experiment with MDA-N, in the experiment with KM12, in the experiment on SR, in the experiment with SNB-19 and in the experiment on CAKI-1 was > 100 µM (inactive) in each case. In addition, the GI50 in the experiment on DU-145, in the experiment on COLO 205, with MOLT-4, with U-251, in the experiment on NCI-H460 and with HOP-92 was > 100 µM (inactive) each time. In addition, the GI50 with A549 is > 100 µM (inactive).

Turning to `CCC(=O)Nc1ccc(NCC(=O)Nc2ccc(Cl)cc2)cc1`, the GI50 in the experiment with HCT-15 was 14.4 µM; in the experiment with SK-OV-3, 16.9 µM (inactive); in the experiment with RPMI-8226, 21.2 µM (inactive); in the experiment on HCC 2998, 13.2 µM (inactive); in the experiment on SK-MEL-5 it was 15.8 µM (inactive); in the experiment on UACC-62, 12.4 µM (inactive). The GI50 with NCI-H522 was 15 µM (inactive); in the experiment with MDA-N, 17.2 µM (inactive); with KM12, 12.7 µM (inactive); in the experiment with SR, 21.3 µM (inactive); in the experiment with SNB-19 it was 19.8 µM (inactive); in the experiment on CAKI-1, 14.3 µM (inactive). Also, the GI50 is 17.9 µM (inactive) in the experiment with DU-145; 16.9 µM (inactive) in the experiment on COLO 205; 21 µM (inactive) in the experiment with MOLT-4; 13.7 µM (inactive) in the experiment with HOP-62; 17.6 µM (inactive) with HOP-92; 19.7 µM (inactive) in the experiment on A549.

As to `O=C1CCc2ccc(O)c(c2)Oc2ccc(cc2)C(Sc2ccccc2)CCO1` (stereo not drawn), the GI50 was 13.7 µM in the experiment on HCT-15; 34.3 µM (inactive) in the experiment on SK-OV-3; 13.5 µM (inactive) in the experiment with RPMI-8226; 17.1 µM (inactive) in the experiment on HCC 2998; 12.1 µM (inactive) in the experiment on SK-MEL-5; 15.1 µM (inactive) in the experiment with UACC-62. In addition, the GI50 in the experiment on NCI-H522 was 13.2 µM (inactive); in the experiment with MDA-N, 16.2 µM (inactive); in the experiment with KM12 it was 15 µM (inactive); in the experiment on SR, 13.1 µM (inactive); in the experiment on SNB-19, 19.7 µM (inactive); in the experiment on CAKI-1 it was 14.1 µM (inactive). In addition, the GI50 was 17.8 µM (inactive) with DU-145; 17.3 µM (inactive) in the experiment on COLO 205; 22.1 µM (inactive) with MOLT-4; 16 µM (inactive) in the experiment on U-251; 12.9 µM (inactive) in the experiment with HOP-62; 10 µM (inactive) with HOP-92. The GI50 with A549 was 18.6 µM (inactive).

For the compound `Cc1ccc(/C=N/Nc2ccc3ccccc3n2)s1`, the GI50 is 12 µM with HCT-15; 30.2 µM (inactive) in the experiment on SK-OV-3; 14.2 µM (inactive) with RPMI-8226; 15.3 µM (inactive) in the experiment with HCC 2998; 9.4 µM (inactive) in the experiment on SK-MEL-5; 34.8 µM (inactive) with UACC-62. Also, the GI50 is 15.7 µM (inactive) in the experiment with NCI-H522; 13.4 µM (inactive) in the experiment on MDA-N; 32.3 µM (inactive) in the experiment with KM12; 22.2 µM (inactive) in the experiment on SR; 21.3 µM (inactive) with SNB-19; > 100 µM (inactive) in the experiment on CAKI-1. For the same compound, the GI50 in the experiment with DU-145 was > 10 µM (inactive); in the experiment on COLO 205, 12.9 µM (inactive); with MOLT-4, 9.55 µM (inactive); in the experiment with U-251, 21.1 µM (inactive); in the experiment with HOP-62 it was 20.8 µM (inactive); in the experiment on HOP-92, 19.1 µM (inactive). The GI50 in the experiment on A549 is 14.3 µM (inactive).
